Measurements from US7186701B2, “Dehydrating agent and method for dehydrating moist article using the agent and dehydrated article obtained by the method” (Kabushiki Kaisha Hayashibara Seibutsu Kagaku Kenkyujo, priority 2001, dated 2007).

What was measured:
[1] = tested on: α-isomaltosylglucosaccharide-forming enzyme; experiment: Influence of metal ions on α-isomaltosylglucosaccharide-forming enzyme activity (C11 strain); type: biochemical, Bacillus globisporus C11 strain; conditions: in the presence of 1 mM metal salt; None = 100
Experimental: (§1) The activities of these enzymes were assayed as follows: The activity of α-isomaltosylglucosaccharide-forming enzyme was assayed by dissolving maltotriose in 100 mM acetate buffer (pH 6.0) to give a concentration of 2% (w/v) for a substrate solution, adding 0.5 ml of an enzyme solution to 0.5 ml of the substrate solution, enzymatically reacting the mixture solution at 35° C. for 60 min, boiling the reaction mixture for 10 min to suspend the enzymatic reaction, and quantifying maltose, among the isomaltosyl maltose and maltose formed in the reaction mixture, on HPLC as described in Experiment 1. One unit activity of the α-isomaltosylglucosaccharide-forming enzyme was defined as the enzyme amount that forms one micromole of maltose per minute under the above enzymatic reaction conditions.
(§2) The influence of metal ions on the activity of α-isomaltosylglucosaccharide-forming enzyme was examined in the presence of 1 mM of any of metal salts according to the assay for the enzyme activity.

[2] = tested on: α-isomaltosylglucosaccharide-forming enzyme; experiment: Specificity of transfer acceptor (C11 enzyme); type: biochemical, Bacillus globisporus C11 strain; conditions: acceptor 1.6%, PINE-DEX #100 donor 4%, one unit/g donor, 30° C., pH 6.0, 24 hours
Experimental: (§3) A variety of saccharides were tested whether they could be used as transferring-acceptors for the α-isomaltosylglucosaccharide-forming enzyme. A solution of D-glucose, D-xylose, L-xylose, D-galactose, D-fructose, D-mannose, D-arabinose, D-fucose, L-sorbose, L-rhamnose, methyl-α-glucopyranoside, methyl-β-glucopyranoside, N-acetyl-glucosamine, sorbitol, α,α-trehalose, isomaltose, isomaltotriose, cellobiose, gentibiose, maltitol, lactose, sucrose, α-cyclodextrin, β-cyclodextrin, or γ-cyclodextrin was prepared. […] The reaction mixtures after the enzymatic reactions were analyzed on gas chromatography (abbreviated as “GLC” hereinafter) for monosaccharides and disaccharides as acceptors, and on HPLC for trisaccharides and higher saccharides as acceptors to confirm whether these saccharides could be used as their transfer acceptors. In the case of performing GLC, the following apparatuses and conditions were used: […] In the case of HPLC analysis, the apparatuses and conditions used were: HPLC apparatus, “CCPD” commercialized by Tosoh Corporation, Tokyo, Japan; column, “ODS-AQ-303” commercialized by YMC Co., Ltd., Tokyo, Japan; eluent, water at a flow rate of 0.5 ml/min; and detection, a differential refractometer.

[3] = tested on: Clostridium perfringens JCM 3816; type: cell-based; conditions: 0.5% saccharide in PYF medium, 37° C., four days, anaerobic
[4] = tested on: Bacteroides vulgatus JCM 5826; experiment: Assimilation test; type: cell-based; conditions: 0.5% saccharide in PYF medium, 37° C., four days, anaerobic
[5] = tested on: Eubacterium aerofaciens ATCC 25986; experiment: Assimilation test; type: cell-based; conditions: 0.5% saccharide in PYF medium, 37° C., four days, anaerobic
[6] = tested on: Lactobacillus acidophilus JCM 1132; experiment: Assimilation test; type: cell-based; conditions: 0.5% saccharide in PYF medium, 37° C., four days, anaerobic
[7] = tested on: α-isomaltosylglucosaccharide-forming enzyme; experiment: Specificity of transfer acceptor (C9 enzyme); type: biochemical, Bacillus globisporus C9 strain; conditions: acceptor 1.6%, PINE-DEX #100 donor 4%, one unit/g donor, 30° C., pH 6.0, 24 hours
Experimental: as §3

[8] = tested on: Bifidobacterium adolescentis JCM 1275; experiment: Assimilation test; type: cell-based; conditions: 0.5% saccharide in PYF medium, 37° C., four days, anaerobic
[9] = tested on: Escherichia coli IFO 3301; experiment: Assimilation test; type: cell-based; conditions: 0.5% saccharide in PYF medium, 37° C., four days, anaerobic
[10] = tested on: Small intestinal mucosal enzyme; experiment: Digestion test in vitro, small intestinal mucosal enzyme
amylopsin = target: T1, amylopsin (Homo sapiens, UniProt P04746); experiment: Digestion test in vitro, amylopsin
T1 sequence (P04746 16-511): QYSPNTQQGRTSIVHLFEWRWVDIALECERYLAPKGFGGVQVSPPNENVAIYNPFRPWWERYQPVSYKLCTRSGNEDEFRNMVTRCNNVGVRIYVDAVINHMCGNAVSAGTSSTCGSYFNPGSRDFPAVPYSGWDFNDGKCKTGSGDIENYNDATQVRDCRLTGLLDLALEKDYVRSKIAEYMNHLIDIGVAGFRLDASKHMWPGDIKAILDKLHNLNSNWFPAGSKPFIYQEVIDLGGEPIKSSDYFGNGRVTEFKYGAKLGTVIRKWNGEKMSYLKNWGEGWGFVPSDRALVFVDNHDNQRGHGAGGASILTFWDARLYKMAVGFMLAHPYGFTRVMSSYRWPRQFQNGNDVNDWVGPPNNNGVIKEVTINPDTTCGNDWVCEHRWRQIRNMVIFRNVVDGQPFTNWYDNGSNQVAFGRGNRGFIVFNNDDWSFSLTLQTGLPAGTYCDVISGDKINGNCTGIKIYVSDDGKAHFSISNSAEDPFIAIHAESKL

[11] = Digestion test in vitro, synthetic gastric juice
salivary amylase = target: T2, salivary amylase (Homo sapiens, UniProt P0DUB6); experiment: Digestion test in vitro, salivary amylase
T2 sequence (P0DUB6 16-511): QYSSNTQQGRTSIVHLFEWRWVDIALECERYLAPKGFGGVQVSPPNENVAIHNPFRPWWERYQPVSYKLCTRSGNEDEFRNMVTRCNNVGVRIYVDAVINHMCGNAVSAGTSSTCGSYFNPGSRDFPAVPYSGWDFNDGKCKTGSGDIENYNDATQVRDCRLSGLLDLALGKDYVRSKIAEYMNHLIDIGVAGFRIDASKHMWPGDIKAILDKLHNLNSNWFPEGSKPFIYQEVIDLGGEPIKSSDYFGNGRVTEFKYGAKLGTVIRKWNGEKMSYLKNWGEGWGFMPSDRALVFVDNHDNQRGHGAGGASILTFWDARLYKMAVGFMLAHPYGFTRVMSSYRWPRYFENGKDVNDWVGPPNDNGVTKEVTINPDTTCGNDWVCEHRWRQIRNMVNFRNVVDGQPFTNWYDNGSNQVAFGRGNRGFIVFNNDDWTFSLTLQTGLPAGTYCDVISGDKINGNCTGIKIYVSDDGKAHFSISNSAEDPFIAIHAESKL

[12] = tested on: α-isomaltosylglucosaccharide-forming enzyme; experiment: Influence of metal ions on α-isomaltosylglucosaccharide-forming enzyme activity (C9 strain); type: biochemical, Bacillus globisporus C9 strain; conditions: in the presence of 1 mM metal salt; None = 100
Experimental: as §1, §2

[13] = Dehydration and pulverization of plain yogurt by non-reducing saccharide; set-up: unit not given here; conditions: listed as A
Experimental: The anhydrous crystalline cyclotetrasaccharide; crystalline cyclotetrasaccharide, monohydrate; and anhydrous amorphous cyclotetrasaccharide were respectively prepared by the methods in Examples A-1, A-2, and A-3. As the crystalline α,α-trehalose, dihydrate, a commercially available “TREHA®” commercialized by Hayashibara Shoji Inc., Okayama, Japan, was used. The anhydrous crystalline α,α-trehalose and the anhydrous amorphous α,α-trehalose used in this experiment were prepared from a commercialized crystalline α,α-trehalose, dihydrate, using the methods disclosed in Examples for Reference 1 and 3 in Japanese Patent Kokai No. 170,221/94. To four parts by weight of a plain yogurt with a moisture content of about 77% was added either of the above saccharides in an amount of 11 to 16 parts by weight. The resultant mixtures were respectively placed in vats, allowed to stand at 25° C. for 24 hours, and macroscopically observed their change on standing. The judgement was conducted in such a manner of sufficiently dehydrating the resulting mixtures to be solidified, subjected to a pulverizer for pulverization, and evaluated as “◯”, when the solids were easily pulverized; “Δ”, when the dehydration of the resulting mixtures was rather insufficient and the pulverization of solids was substantially difficult, though the resulting mixtures were solidified; and “x”, when the dehydration of the resulting mixtures was insufficient and could not be pulverized by a pulverizer.

Aspergillus niger = experiment: Bacterial contamination of gelatinized starch (gyuhi); conditions: at 30 days on standing, 25° C., open conditions
Experimental: The mixture was mixed with a mixer and further mixed to homogeneity with two parts by weight of a starch hydrolyzate, shaped, and roughly dried for two hours, while blowing 40° C. hot air to the contents, to obtain “gyuhi” (a rice paste with sugar).

[14] = Dehydrating action: moisture absorption on standing at controlled relative humidity; type: physicochemical; conditions: for moisture content (%) by the Karl Fisher method: 25° C., listed as A
Excerpt: Anhydrous crystalline cyclotetrasaccharide; crystalline cyclotetrasaccharide, monohydrate; anhydrous amorphous cyclotetrasaccharide; and crystalline cyclotetrasaccharide, penta- or hexa-hydrate were experimented in detail on their dehydrating actions, particularly, moisture absorption abilities against saccharides and changes on standing. As a control, anhydrous crystalline α,α-trehalose, anhydrous amorphous α,α-trehalose, and crystalline α,α-trehalose, dihydrate, were used as saccharides. The experiments were as follows: […]

[Al+3] [Al^3+]
Relative activity (%) [1]: 100%

O=C[C@H](O)[C@@H](O)[C@H](O)[C@H](O)CO [D-Glucose, D-glucose, reference compound]
Product of saccharide transferring reaction, Enzyme of C11 strain [2]: + (a saccharide-transferred product was detected in an amount of at least one percent but less than ten percent through transferring reaction to acceptor) | Assimilability [3]: + (judged as positive (+) when the post culture had a pH of below 6.0) | Assimilability [4]: + (judged as positive (+) when the post culture had a pH of below 6.0) | Assimilability [5]: + (judged as positive (+) when the post culture had a pH of below 6.0) | Assimilability [6]: + (judged as positive (+) when the post culture had a pH of below 6.0) | Product of saccharide transferring reaction, Enzyme of C9 strain [7]: + (a saccharide-transferred product was detected in an amount of at least one percent but less than ten percent through transferring reaction to acceptor) | Assimilability [8]: + (judged as positive (+) when the post culture had a pH of below 6.0) | Assimilability [9]: + (judged as positive (+) when the post culture had a pH of below 6.0)

[Fe+2] [Fe^2+]
Relative activity (%) [1]: 100%

OC[C@@H](O)[C@@H](O[C@H]1O[C@H](CO)[C@@H](O)[C@H](O)[C@H]1O)[C@H](O)[C@@H](O)CO [Maltitol, maltitol]
Decomposition percentage (%) by digestive enzyme [10]: 4.0% | Product of saccharide transferring reaction, Enzyme of C11 strain [2]: ++ (a saccharide-transferred product was detected in an amount of at least ten percent through transferring reaction to acceptor) | Decomposition percentage (%) by digestive enzyme (amylopsin): 0.0% | Decomposition percentage (%) by digestive enzyme [11]: 0.0% | Decomposition percentage (%) by digestive enzyme (salivary amylase): 0.0% | Product of saccharide transferring reaction, Enzyme of C9 strain [7]: ++ (a saccharide-transferred product was detected in an amount of at least ten percent through transferring reaction to acceptor)

[Mg+2] [Mg^2+]
Relative activity (%) [12]: 100%

OC[C@H]1O[C@@H]2OC[C@H]3O[C@H](O[C@@H]4[C@@H](O)[C@@H](OC[C@H]5O[C@H](O[C@H]([C@H]2O)[C@@H]1O)[C@H](O)[C@@H](O)[C@@H]5O)O[C@H](CO)[C@H]4O)[C@H](O)[C@@H](O)[C@@H]3O [Saccharide A, anhydrous crystalline cyclotetrasaccharide]
Water content (before use) [13]: 0.2 | bacterial contamination in gyuhi (Aspergillus niger): found no bacterial contamination | moisture content (%) by the Karl Fisher method ([14]; relative humidity 60%, 0 days after treatment): 0.2% | moisture content (%) by the Karl Fisher method ([14]; relative humidity 60%, 1 day after treatment): 10.2% | moisture content (%) by the Karl Fisher method ([14]; relative humidity 60%, 2 days after treatment): 10.3% | moisture content (%) by the Karl Fisher method ([14]; relative humidity 60%, 3 days after treatment): 10.3% | moisture content (%) by the Karl Fisher method ([14]; relative humidity 60%, 7 days after treatment): 10.4% | moisture content (%) by the Karl Fisher method ([14]; relative humidity 75%, 0 days after treatment): 0.2% | moisture content (%) by the Karl Fisher method ([14]; relative humidity 75%, 1 day after treatment): 13.9% | moisture content (%) by the Karl Fisher method ([14]; relative humidity 75%, 2 days after treatment): 14.4% | moisture content (%) by the Karl Fisher method ([14]; relative humidity 75%, 3 days after treatment): 14.4% | moisture content (%) by the Karl Fisher method ([14]; relative humidity 75%, 7 days after treatment): 14.3% | moisture absorption level, % of its weight ([14]; relative humidity of 60%, listed as anhydrous crystalline cyclotetrasaccharide): about 10% | moisture absorption level, % of its weight ([14]; relative humidity of 75%): about 14%
